PubChem BioAssay (NCI)
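Cells were grown in 96-well plates and exposed to each compound for 48 hours at five concentrations; endpoints were interpolated linearly between bracketing concentrations, or set to the highest concentration if not reached. The concentration for 50% growth inhibition is given as GI50. Definition used: TGI = concentration required for complete inhibition of growth.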

Tests used:
Assay in all cases: inhibition of tumour cell growth, NCI panel, 48 h
[1] = test system: UACC-62 melanoma
[2] = test system: COLO 205 colon
[3] = test system: HCC-2998 colon
[4] = test system: TK-10 renal
[5] = test system: M14 melanoma
[6] = test system: SF-295 CNS
[7] = test system: HCT-15 colon
[8] = test system: IGROV1 ovarian
[9] = test system: UO-31 renal

## COc1ccc2c(c1)CC1c3c(cc4c(c3-2)OCO4)CCN1C (stereo unspecified)
[1]
  TGI: 47.6 µM
[2]
  TGI: 30.9 µM
[3]
  TGI: > 100 µM
[4]
  TGI: 71.3 µM
[5]
  TGI: 62.9 µM
[6]
  TGI: 50 µM
[7]
  TGI: > 100 µM
[8]
  TGI: 85.8 µM
[9]
  TGI: 36.6 µM

## CC(C)(c1ccc(OC#N)cc1)c1ccc(OC#N)cc1
[1]
  TGI: > 100 µM
[2]
  TGI: > 67.7 µM
[3]
  TGI: > 100 µM
[4]
  TGI: > 100 µM
[5]
  TGI: > 100 µM
[6]
  TGI: > 100 µM
[7]
  TGI: 39.7 µM
[8]
  TGI: > 100 µM
[9]
  TGI: > 100 µM

## N#CC(C#N)=C1SCC(=O)CS1
[1]
  TGI: > 100 µM
[2]
  TGI: > 100 µM
[3]
  TGI: > 100 µM
[4]
  TGI: > 100 µM
[5]
  TGI: > 100 µM
[6]
  TGI: > 100 µM
[7]
  TGI: > 100 µM
[8]
  TGI: > 100 µM
[9]
  TGI: > 100 µM

## C/C(=N\O)C(CN1CCCCC1)C(c1ccccc1)c1c(O)c2ccccc2oc1=O (stereo unspecified)
[1]
  TGI: > 100 µM
[2]
  TGI: > 100 µM
[3]
  TGI: > 100 µM
[4]
  TGI: > 100 µM
[5]
  TGI: > 100 µM
[6]
  TGI: > 100 µM
[8]
  TGI: > 100 µM

## COc1cc([C@@H]2OC(=O)C3C2C(=O)O[C@H]3c2cc(OC)c(OC)c(OC)c2)cc(OC)c1OC (stereo partly specified)
[1]
  TGI: > 100 µM
[2]
  TGI: > 100 µM
[3]
  TGI: > 100 µM
[4]
  TGI: > 100 µM
[5]
  TGI: > 100 µM
[6]
  TGI: > 100 µM
[7]
  TGI: > 100 µM
[8]
  TGI: > 100 µM
[9]
  TGI: > 100 µM

## Cc1cc(=O)oc2cc(OCc3nc4ccccc4c(=O)[nH]3)ccc12
[1]
  TGI: > 100 µM
[2]
  TGI: > 100 µM
[3]
  TGI: > 100 µM
[4]
  TGI: > 100 µM
[5]
  TGI: > 100 µM
[6]
  TGI: > 100 µM
[7]
  TGI: > 100 µM
[8]
  TGI: > 100 µM

## c1ccc(SC(CCCCOC2CCCCO2)Sc2ccccc2)cc1 (stereo unspecified)
[1]
  TGI: > 100 µM
[2]
  TGI: > 100 µM
[3]
  TGI: > 100 µM
[4]
  TGI: > 100 µM
[5]
  TGI: > 100 µM
[6]
  TGI: > 100 µM
[7]
  TGI: > 100 µM
[8]
  TGI: > 100 µM
[9]
  TGI: 76.5 µM

## NC(CCSC(F)F)C(=O)O (stereo unspecified)
[1]
  TGI: > 100 µM
[2]
  TGI: > 100 µM
[3]
  TGI: > 100 µM
[4]
  TGI: > 100 µM
[5]
  TGI: > 100 µM
[6]
  TGI: > 100 µM
[8]
  TGI: > 100 µM
[9]
  TGI: > 100 µM

## Cc1cccc2c1C(=O)OC2(C)c1cccc2ccccc12 (stereo unspecified)
[3]
  TGI: 50.9 µM
[4]
  TGI: 95.2 µM
[5]
  TGI: 40.7 µM
[6]
  TGI: > 100 µM
[7]
  TGI: > 100 µM
[9]
  TGI: > 100 µM

## O=C1c2c(nc3ccccc3c2-c2ccccc2)CN1Nc1ccccc1
[1]
  TGI: > 100 µM
[2]
  TGI: > 100 µM
[3]
  TGI: > 100 µM
[4]
  TGI: > 100 µM
[5]
  TGI: > 100 µM
[8]
  TGI: > 100 µM
[9]
  TGI: > 100 µM

## COc1ccccc1/C=N/N=C(\N)NO
[1]
  TGI: 33.7 µM
[2]
  TGI: > 100 µM
[3]
  TGI: 29.2 µM
[6]
  TGI: 12.3 µM
[7]
  TGI: > 100 µM
[8]
  TGI: > 100 µM
[9]
  TGI: > 100 µM

## Cn1c(=O)c(C(=O)NC(=O)OCc2ccccc2)cn(CCSCCOC(=O)NCCCCCCNC(=O)OCCSCCn2cc(C(=O)NC(=O)OCc3ccccc3)c(=O)n(C)c2=O)c1=O
[1]
  TGI: > 100 µM
[2]
  TGI: > 100 µM
[3]
  TGI: > 100 µM
[4]
  TGI: > 100 µM
[5]
  TGI: > 100 µM
[7]
  TGI: > 100 µM
[8]
  TGI: > 100 µM
[9]
  TGI: > 100 µM

## COc1cc2cccc(NC(=O)c3cc(OC)c(OC)c(OC)c3Br)c2cc1OC
[1]
  TGI: 26.1 µM
[2]
  TGI: 26.6 µM
[3]
  TGI: 85.4 µM
[4]
  TGI: 92.6 µM
[5]
  TGI: 23.5 µM
[6]
  TGI: 40.9 µM
[8]
  TGI: 44.6 µM
[9]
  TGI: 24.2 µM

## CC1(C)C2C/C(=C\c3ccccc3)C(=O)C1C2 (stereo unspecified)
[1]
  TGI: > 100 µM
[2]
  TGI: > 100 µM
[3]
  TGI: > 100 µM
[4]
  TGI: > 100 µM
[5]
  TGI: > 100 µM
[6]
  TGI: > 100 µM
[7]
  TGI: > 100 µM
[8]
  TGI: > 100 µM
[9]
  TGI: > 100 µM

## C=C(C)[C@H](O)C(O)CC(C)[C@@H]1CCC23CC12CCC1[C@@]2(C)CCC(OC(C)=O)C(C)(C)C2CC(OC2OC(COC(C)=O)C(O)C(O)C2O)[C@]13C (stereo partly specified)
[1]
  TGI: 9.4 µM
[2]
  TGI: 12.6 µM
[3]
  TGI: 12.4 µM
[4]
  TGI: 12.5 µM
[5]
  TGI: 9.11 µM
[6]
  TGI: 12.5 µM
[7]
  TGI: 10.4 µM
[8]
  TGI: 9.54 µM
[9]
  TGI: 14.5 µM

## Cc1ccc(/C=C2\CCCC\C2=N\O)cc1
[1]
  TGI: > 100 µM
[2]
  TGI: > 100 µM
[3]
  TGI: > 100 µM
[4]
  TGI: > 100 µM
[5]
  TGI: > 100 µM
[6]
  TGI: > 100 µM
[7]
  TGI: > 100 µM
[8]
  TGI: > 100 µM
[9]
  TGI: 84 µM

## N#C[S-].[Au+].c1ccc(CN2[CH-]N(Cc3ccccc3)C(c3ccccc3)=C2c2ccccc2)cc1
[4]
  GI50: 0.583 µM
  TGI: 1.98 µM

## C/C(=C\CC[C@]1(C)OC(C)(C)OC1CC/C(C)=C/CO[Si](c1ccccc1)(c1ccccc1)C(C)(C)C)CC/C=C/CO[Si](C)(C)C(C)(C)C (stereo partly specified)
[1]
  TGI: > 100 µM
[3]
  TGI: > 100 µM
[4]
  TGI: > 100 µM
[5]
  TGI: > 100 µM
[6]
  TGI: > 100 µM
[7]
  TGI: > 100 µM
[8]
  TGI: > 100 µM
[9]
  TGI: > 100 µM
